Measurements: ChEMBL document CHEMBL4680157, “Design, synthesis and biological evaluation of novel TRβ selective agonists sustained by ADME-toxicity analysis” (Eur J Med Chem, 2020)

How the values were obtained:
[1] = Toxicity in F344 rat assessed as reduction in liver and body weight ratio at 50 to 100 ug per 100 g body weight, ig administered daily for 3 days; type: tissue-based; conditions: in vivo, po, 72 h, dose 50-100 µg, time 3 day
[2] = Toxicity in F344 rat assessed as effect on serum triglycerides level at 20 ug per 100 g of body weight, ig administered daily for 3 days (reference value: 86.8 +/- 10.4 mg/dl); conditions: in vivo, po, 72 h, dose 20 µg, time 3 day
[3] = Toxicity in F344 rat assessed as increase in heart weight at 50 to 100 ug per 100 g body weight, ig administered daily for 3 days; conditions: in vivo, po, 72 h, dose 50-100 µg, time 3 day
[4] = Toxicity in F344 rat assessed as effect on serum cholesterol level at 20 ug per 100 g of body weight, ig administered daily for 3 days (reference value: 67.2 +/- 2.5 mg/dl); conditions: in vivo, po, 72 h, dose 20 µg, time 3 day
[5] = Toxicity in F344 rat assessed as effect on serum AST/GOT level at 20 ug per 100 g of body weight, ig administered daily for 3 days (reference value: 153 +/- 11 U/L); conditions: in vivo, po, 72 h, dose 20 µg, time 3 day
[6] = Toxicity in F344 rat assessed as effect on serum bilirubin level at 20 ug per 100 g of body weight, ig administered daily for 3 days (reference value: 1.4 +/- 0.2 mg/dl); conditions: in vivo, po, 72 h, dose 20 µg, time 3 day
[7] = Toxicity in F344 rat assessed as effect on serum glucose level at 20 ug per 100 g of body weight, ig administered daily for 3 days (reference value: 151 +/- 13.5 mg/dl); conditions: in vivo, po, 72 h, dose 20 µg, time 3 day
[8] = Toxicity in F344 rat assessed as increase in heart and body weight ratio at 50 to 100 ug per 100 g body weight, ig administered daily for 3 days; conditions: in vivo, po, 72 h, dose 50-100 µg, time 3 day
[9] = Toxicity in F344 rat assessed as effect on serum ALT/GPT level at 20 ug per 100 g of body weight, ig administered daily for 3 days (reference value: 46 +/- 4 U/L); conditions: in vivo, po, 72 h, dose 20 µg, time 3 day
[10] = target: T1, CYP1A2 (Homo sapiens, UniProt P05177); test: Inhibition of CYP1A2 (unknown origin) at 10 uM relative to control; type: ADME
T1 sequence (P05177 whole entry): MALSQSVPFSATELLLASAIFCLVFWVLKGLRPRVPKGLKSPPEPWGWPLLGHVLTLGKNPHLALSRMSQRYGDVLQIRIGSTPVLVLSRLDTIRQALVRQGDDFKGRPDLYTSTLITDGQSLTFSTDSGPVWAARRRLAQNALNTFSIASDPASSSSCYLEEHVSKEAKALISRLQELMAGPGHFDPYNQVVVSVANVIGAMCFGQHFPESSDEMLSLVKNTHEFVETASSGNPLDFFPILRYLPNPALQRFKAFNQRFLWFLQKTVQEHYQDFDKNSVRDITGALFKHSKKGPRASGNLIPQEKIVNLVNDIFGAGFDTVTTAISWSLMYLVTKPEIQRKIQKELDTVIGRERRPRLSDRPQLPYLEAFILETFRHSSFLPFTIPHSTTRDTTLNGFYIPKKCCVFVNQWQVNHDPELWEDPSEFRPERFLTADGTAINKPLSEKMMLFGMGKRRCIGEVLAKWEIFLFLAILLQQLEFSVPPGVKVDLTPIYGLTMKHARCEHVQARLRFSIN

[11] = target: T2, HDAC6 (Homo sapiens, UniProt Q9UBN7); test: Inhibition of HDAC6 (unknown origin) at 10 uM relative to control
T2 sequence (Q9UBN7 whole entry): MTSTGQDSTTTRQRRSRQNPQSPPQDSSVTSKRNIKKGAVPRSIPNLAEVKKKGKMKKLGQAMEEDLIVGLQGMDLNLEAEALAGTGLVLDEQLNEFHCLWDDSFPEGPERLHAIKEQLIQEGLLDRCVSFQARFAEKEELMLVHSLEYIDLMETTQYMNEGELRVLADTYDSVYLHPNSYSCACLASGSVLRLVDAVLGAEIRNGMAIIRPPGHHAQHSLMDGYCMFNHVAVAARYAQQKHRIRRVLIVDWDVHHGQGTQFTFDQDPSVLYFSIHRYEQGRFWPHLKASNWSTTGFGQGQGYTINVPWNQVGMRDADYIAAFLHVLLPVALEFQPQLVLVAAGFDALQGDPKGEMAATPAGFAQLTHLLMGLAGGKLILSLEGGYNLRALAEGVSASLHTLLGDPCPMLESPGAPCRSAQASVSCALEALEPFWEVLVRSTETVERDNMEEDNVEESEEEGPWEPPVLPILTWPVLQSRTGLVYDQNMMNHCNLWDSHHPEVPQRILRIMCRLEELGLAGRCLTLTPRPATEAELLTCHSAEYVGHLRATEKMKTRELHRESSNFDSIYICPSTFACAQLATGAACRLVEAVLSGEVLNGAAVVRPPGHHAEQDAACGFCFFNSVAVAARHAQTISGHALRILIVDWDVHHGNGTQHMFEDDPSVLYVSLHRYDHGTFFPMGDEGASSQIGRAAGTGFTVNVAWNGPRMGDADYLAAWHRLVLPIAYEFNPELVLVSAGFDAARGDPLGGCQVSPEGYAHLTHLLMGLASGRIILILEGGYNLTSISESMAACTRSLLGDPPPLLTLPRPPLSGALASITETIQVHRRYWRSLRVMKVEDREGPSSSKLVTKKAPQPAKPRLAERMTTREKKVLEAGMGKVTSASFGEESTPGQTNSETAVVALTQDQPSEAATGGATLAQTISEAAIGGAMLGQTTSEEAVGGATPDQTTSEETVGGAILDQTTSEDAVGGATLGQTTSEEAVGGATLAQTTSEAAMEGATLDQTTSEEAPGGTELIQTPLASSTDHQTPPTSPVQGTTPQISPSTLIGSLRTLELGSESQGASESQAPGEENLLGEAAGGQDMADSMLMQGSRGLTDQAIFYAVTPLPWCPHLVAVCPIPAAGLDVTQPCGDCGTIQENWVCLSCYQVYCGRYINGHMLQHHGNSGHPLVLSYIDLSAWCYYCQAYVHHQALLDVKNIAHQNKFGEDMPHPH

[12] = Cytotoxicity against human U2OS cells assessed as cell growth inhibition at 10 uM after 24 hrs relative to control; type: cell-based
[13] = Cytotoxicity against human hTERT cells assessed as cell growth inhibition at 10 uM after 24 hrs relative to control; type: cell-based, hTERT-BJ
[14] = target: HDAC9 (Homo sapiens, UniProt Q9UKV0); test: Inhibition of HDAC9 (unknown origin) at 10 uM relative to control
HDAC9, sequence (Q9UKV0 whole entry): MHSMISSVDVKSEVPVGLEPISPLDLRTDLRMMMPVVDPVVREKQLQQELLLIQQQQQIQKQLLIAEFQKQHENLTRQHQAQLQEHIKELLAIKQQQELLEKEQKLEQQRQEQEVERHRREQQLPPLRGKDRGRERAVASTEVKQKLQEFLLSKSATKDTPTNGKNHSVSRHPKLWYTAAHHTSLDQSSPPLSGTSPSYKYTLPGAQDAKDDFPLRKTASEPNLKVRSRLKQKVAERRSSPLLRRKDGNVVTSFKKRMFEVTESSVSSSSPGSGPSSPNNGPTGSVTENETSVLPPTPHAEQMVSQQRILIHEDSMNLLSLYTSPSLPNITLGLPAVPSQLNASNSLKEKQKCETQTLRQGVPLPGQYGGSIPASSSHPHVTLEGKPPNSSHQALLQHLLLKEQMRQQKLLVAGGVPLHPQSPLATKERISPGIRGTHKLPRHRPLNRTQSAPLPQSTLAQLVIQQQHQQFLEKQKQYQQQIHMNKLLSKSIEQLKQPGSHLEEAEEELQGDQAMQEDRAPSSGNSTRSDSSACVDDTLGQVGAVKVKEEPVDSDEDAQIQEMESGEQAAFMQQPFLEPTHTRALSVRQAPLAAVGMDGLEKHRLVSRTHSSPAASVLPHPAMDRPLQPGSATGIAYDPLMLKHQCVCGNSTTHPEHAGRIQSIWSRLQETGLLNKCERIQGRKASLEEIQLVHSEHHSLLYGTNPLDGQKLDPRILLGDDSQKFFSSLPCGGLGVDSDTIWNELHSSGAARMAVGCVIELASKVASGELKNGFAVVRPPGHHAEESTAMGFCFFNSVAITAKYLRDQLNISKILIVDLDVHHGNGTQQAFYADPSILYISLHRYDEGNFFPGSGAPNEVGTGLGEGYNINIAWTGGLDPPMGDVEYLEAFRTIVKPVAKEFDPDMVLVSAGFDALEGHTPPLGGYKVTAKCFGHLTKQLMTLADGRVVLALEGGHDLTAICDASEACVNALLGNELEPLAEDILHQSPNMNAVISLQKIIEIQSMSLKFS

[15] = target: 3',5'-cyclic-AMP phosphodiesterase 4C (Homo sapiens) (UniProt Q08493); test: Inhibition of PDE4C1 (unknown origin) at 10 uM relative to control
3',5'-cyclic-AMP phosphodiesterase 4C (Homo sapiens), sequence (Q08493 whole entry): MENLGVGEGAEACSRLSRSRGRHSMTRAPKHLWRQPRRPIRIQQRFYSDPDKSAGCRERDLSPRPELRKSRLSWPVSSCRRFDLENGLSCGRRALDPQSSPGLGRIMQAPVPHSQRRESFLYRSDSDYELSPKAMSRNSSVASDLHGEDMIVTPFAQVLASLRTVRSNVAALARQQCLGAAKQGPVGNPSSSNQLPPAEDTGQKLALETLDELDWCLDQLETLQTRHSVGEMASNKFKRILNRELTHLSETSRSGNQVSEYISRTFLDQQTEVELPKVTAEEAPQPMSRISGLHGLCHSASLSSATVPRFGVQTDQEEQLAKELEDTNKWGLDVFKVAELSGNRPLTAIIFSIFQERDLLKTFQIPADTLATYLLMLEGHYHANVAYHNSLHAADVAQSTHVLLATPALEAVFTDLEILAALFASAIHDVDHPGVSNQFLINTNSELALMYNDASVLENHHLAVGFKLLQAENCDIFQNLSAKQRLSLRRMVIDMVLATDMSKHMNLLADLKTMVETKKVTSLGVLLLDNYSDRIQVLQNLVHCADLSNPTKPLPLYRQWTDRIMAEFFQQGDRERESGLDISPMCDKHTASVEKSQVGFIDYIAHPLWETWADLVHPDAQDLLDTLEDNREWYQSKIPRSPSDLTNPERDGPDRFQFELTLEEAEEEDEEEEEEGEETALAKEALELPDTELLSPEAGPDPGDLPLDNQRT

[16] = target: CYP2C19 (Homo sapiens, UniProt P33261); test: Inhibition of CYP2C19 (unknown origin) at 10 uM relative to control; type: ADME
[17] = target: Aurora B (Homo sapiens, UniProt Q96GD4); test: Inhibition of Aurora B (unknown origin) at 10 uM relative to control
Aurora B, sequence (Q96GD4 whole entry): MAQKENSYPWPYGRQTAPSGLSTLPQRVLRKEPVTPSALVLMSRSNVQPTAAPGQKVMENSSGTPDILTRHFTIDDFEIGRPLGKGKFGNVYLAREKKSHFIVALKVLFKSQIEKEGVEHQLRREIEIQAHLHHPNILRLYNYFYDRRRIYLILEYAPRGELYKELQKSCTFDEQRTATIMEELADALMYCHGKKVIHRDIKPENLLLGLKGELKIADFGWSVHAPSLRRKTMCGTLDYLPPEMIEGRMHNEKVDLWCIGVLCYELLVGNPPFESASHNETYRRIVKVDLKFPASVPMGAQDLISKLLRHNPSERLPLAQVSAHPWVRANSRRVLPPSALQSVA

[18] = Cytotoxicity against human hTERT cells assessed as cell growth inhibition at 10 uM after 48 hrs relative to control; type: cell-based, hTERT-BJ
[19] = target: CYP2C9 (Homo sapiens, UniProt P11712); test: Inhibition of CYP2C9 (unknown origin) at 10 uM relative to control; type: ADME
CYP2C9, sequence (P11712 whole entry): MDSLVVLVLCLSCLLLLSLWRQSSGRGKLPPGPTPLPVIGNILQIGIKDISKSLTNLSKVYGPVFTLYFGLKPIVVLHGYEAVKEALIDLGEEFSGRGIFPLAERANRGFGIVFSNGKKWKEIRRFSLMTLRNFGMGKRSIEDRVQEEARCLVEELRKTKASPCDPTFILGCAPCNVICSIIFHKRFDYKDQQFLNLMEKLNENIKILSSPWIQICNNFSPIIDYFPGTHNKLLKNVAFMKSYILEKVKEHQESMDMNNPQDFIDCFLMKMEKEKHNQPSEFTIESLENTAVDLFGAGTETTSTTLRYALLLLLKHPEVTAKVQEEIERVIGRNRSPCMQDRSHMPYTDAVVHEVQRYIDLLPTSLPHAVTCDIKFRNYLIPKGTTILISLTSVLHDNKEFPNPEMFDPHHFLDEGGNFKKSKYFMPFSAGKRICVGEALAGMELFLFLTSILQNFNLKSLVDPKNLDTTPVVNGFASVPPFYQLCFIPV

[20] = Cytotoxicity against human MCF7 cells assessed as cell growth inhibition at 10 uM after 24 hrs relative to control; type: cell-based
[21] = Cytotoxicity against human U2OS cells assessed as cell growth inhibition at 10 uM after 48 hrs relative to control; type: cell-based
[22] = Cytotoxicity against human HEK293 cells assessed as cell growth inhibition at 10 uM after 48 hrs relative to control; type: cell-based
[23] = target: CYP3A4 (Homo sapiens, UniProt P08684); test: Inhibition of CYP3A4 (unknown origin) at 10 uM relative to control; type: ADME
CYP3A4, sequence (P08684 whole entry): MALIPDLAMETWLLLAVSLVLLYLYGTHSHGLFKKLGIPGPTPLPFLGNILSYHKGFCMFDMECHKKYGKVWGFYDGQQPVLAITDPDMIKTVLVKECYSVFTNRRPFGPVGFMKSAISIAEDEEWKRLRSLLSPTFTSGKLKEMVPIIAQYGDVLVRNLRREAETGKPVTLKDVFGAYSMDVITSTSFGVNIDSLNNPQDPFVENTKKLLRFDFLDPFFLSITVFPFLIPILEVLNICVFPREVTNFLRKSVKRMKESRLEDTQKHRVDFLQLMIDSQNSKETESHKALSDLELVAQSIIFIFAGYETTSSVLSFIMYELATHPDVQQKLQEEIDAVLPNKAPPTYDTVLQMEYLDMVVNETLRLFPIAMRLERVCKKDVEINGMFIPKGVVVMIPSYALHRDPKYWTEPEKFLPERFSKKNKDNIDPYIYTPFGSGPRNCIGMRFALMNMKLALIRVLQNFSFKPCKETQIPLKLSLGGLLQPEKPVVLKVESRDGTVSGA

[24] = Cytotoxicity against human MCF7 cells assessed as cell growth inhibition at 10 uM after 48 hrs relative to control; type: cell-based
[25] = target: T3, SIRT7 (Homo sapiens, UniProt Q9NRC8); test: Inhibition of SIRT7 (unknown origin) at 10 uM relative to control
T3 sequence (Q9NRC8 whole entry): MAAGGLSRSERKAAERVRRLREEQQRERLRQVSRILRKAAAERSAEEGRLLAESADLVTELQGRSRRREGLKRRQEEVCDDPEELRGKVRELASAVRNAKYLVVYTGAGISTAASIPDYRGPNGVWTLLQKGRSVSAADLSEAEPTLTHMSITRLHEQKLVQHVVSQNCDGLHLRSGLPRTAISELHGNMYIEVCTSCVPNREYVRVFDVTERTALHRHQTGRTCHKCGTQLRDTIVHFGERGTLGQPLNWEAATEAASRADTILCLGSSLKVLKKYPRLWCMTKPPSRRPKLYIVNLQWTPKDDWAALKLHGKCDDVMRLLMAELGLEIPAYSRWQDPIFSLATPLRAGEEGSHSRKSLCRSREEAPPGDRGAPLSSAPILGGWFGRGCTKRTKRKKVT

[26] = Cytotoxicity against human HEK293 cells assessed as cell growth inhibition at 10 uM after 24 hrs relative to control; type: cell-based
[27] = target: HDAC4 (Homo sapiens, UniProt P56524); test: Inhibition of HDAC4 (unknown origin) at 10 uM relative to control
[28] = target: T4, HDAC8 (Homo sapiens, UniProt Q9BY41); test: Inhibition of HDAC8 (unknown origin) at 10 uM relative to control
T4 sequence (Q9BY41 whole entry): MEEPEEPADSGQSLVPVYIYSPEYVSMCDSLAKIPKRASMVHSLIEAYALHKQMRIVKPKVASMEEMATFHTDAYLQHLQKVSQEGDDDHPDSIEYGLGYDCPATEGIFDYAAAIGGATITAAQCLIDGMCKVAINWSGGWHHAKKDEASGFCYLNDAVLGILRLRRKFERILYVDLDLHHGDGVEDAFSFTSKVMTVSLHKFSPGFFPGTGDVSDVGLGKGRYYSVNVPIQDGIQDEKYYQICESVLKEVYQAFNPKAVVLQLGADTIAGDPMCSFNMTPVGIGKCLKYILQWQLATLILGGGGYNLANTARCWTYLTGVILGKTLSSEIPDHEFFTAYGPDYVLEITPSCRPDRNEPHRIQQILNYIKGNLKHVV

[29] = target: hERG (KCNH2) (Homo sapiens, UniProt Q12809); test: Inhibition of human ERG at 10 uM by fluorescence polarization assay relative to control
hERG (KCNH2), sequence (Q12809 whole entry): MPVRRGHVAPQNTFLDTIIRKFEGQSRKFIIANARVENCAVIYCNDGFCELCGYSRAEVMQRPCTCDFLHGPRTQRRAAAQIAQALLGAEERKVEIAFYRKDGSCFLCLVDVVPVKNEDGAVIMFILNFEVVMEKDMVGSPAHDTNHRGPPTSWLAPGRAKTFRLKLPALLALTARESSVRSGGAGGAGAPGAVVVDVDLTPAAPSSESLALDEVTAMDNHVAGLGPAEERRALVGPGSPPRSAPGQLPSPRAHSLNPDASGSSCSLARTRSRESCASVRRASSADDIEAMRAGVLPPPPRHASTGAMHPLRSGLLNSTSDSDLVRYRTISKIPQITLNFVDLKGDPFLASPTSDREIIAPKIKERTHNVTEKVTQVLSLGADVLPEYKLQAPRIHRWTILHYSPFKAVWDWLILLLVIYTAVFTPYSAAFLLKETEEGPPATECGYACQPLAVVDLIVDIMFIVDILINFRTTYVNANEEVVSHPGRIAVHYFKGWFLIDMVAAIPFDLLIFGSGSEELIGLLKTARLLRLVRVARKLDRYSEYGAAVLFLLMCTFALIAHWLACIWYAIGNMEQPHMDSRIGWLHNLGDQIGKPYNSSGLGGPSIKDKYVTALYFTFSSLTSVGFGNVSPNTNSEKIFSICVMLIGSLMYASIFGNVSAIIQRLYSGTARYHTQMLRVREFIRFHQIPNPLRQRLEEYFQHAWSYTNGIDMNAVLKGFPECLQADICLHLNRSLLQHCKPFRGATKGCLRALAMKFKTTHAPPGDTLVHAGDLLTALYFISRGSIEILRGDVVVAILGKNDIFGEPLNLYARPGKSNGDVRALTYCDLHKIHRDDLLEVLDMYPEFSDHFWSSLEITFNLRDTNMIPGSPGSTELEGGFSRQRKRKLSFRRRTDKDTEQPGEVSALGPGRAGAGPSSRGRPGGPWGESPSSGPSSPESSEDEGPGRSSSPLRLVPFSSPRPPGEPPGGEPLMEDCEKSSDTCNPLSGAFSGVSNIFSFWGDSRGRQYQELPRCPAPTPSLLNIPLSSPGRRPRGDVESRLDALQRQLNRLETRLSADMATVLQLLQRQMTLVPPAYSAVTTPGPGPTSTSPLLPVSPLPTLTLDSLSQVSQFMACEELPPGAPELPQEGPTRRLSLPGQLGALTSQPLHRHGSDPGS

[30] = target: CYP2D6 (Homo sapiens, UniProt P10635); test: Inhibition of CYP2D6 (unknown origin) at 10 uM relative to control; type: ADME
CYP2D6, sequence (P10635 whole entry): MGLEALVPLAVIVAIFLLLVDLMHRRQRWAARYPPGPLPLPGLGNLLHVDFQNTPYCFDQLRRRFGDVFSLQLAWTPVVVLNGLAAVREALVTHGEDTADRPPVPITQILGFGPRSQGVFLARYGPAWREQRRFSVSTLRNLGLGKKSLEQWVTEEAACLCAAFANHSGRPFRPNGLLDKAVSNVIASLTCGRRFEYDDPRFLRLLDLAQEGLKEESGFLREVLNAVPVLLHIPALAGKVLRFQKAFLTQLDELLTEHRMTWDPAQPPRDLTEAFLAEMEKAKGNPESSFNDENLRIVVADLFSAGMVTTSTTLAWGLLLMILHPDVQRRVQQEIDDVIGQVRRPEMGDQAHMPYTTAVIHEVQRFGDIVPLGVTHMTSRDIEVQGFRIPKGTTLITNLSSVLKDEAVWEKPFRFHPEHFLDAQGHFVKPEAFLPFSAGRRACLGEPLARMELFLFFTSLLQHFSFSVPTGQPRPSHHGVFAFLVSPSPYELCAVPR

| Structure (SMILES) | inhibition at 10 µM [10] [%] | inhibition at 10 µM [11] [%] | inhibition at 24 h, 10 µM [12] [%] | inhibition at 24 h, 10 µM [13] [%] | inhibition at 10 µM [14] [%] | inhibition [15] [%] | inhibition at 10 µM [16] [%] | inhibition at 10 µM [17] [%] | inhibition at 48 h, 10 µM [18] [%] | inhibition at 10 µM [19] [%] | inhibition at 24 h, 10 µM [20] [%] | inhibition at 48 h, 10 µM [21] [%] | inhibition at 48 h, 10 µM [22] [%] | inhibition at 10 µM [23] [%] | inhibition at 48 h, 10 µM [24] [%] | inhibition at 10 µM [25] [%] | inhibition at 24 h, 10 µM [26] [%] | inhibition at 10 µM [27] [%] | inhibition at 10 µM [28] [%] | inhibition at 10 µM [29] [%] | further results |
| --- | --- | --- | --- | --- | --- | --- | --- | --- | --- | --- | --- | --- | --- | --- | --- | --- | --- | --- | --- | --- | --- |
| N[C@@H](Cc1cc(I)c(Oc2ccc(O)c(I)c2)c(I)c1)C(=O)O [LIOTHYRONINE] | – | – | – | – | – | – | – | – | – | – | – | – | – | – | – | – | – | – | – | – | Activity [1]: Toxic; Activity [2]: 90.2 mg/dL; Activity [3]: Toxic; Activity [4]: 65.2 mg/dL; Activity [5]: 159 U/L; Activity [6]: 1.4 mg/dL; Activity [7]: 139 mg/dL; Activity [8]: Toxic; Activity [9]: 53 U/L |
| Cc1cc(OCC(=O)O)cc(C)c1Cc1ccc(N)cc1 | < 50 | < 50 | < 50 | < 50 | < 50 | < 50 | < 50 | < 50 | < 50 | < 50 | < 50 | < 50 | < 50 | < 50 | < 50 | < 50 | < 50 | < 50 | < 50 | < 25 | inhibition at 10 µM [30]: < 50% |
| Cc1cc(OCCN)cc(C)c1Cc1ccc(O)cc1 | 51 | < 50 | < 50 | < 50 | < 50 | < 50 | > 91 | < 50 | < 50 | > 91 | < 50 | < 50 | < 50 | 51 | < 50 | < 50 | < 50 | < 50 | < 50 | 51 | inhibition at 10 µM [30]: 51% |
